Results: ChEMBL document CHEMBL4261496, “Targeting quinolone- and aminocoumarin-resistant bacteria with new gyramide analogs that inhibit DNA gyrase” (Medchemcomm, 2017)
In brackets after ≈: the same amount, converted by molar mass. Activity calls are given as the source filed them. The rule behind the calls is not given here.

Assays:
[1] = tested on: Escherichia coli; test: Antibacterial activity against Escherichia coli JW5503 simultaneously overexpressing gyrA/gyrB in presence of IPTG induction after 16 hrs by broth microdilution method; type: functional, organism-based
[2] = tested on: Escherichia coli; test: Antibacterial activity against Escherichia coli JW5503 transfected with empty vector in absence of IPTG induction after 16 hrs by broth microdilution method; type: functional; details: JW5503, 16 h
[3] = tested on: Escherichia coli; test: Antibacterial activity against Escherichia coli JW5503 overexpressing gyrA/gyrB in absence of IPTG induction after 16 hrs by broth microdilution method; type: functional; details: JW5503, 16 h
[4] = tested on: Escherichia coli; test: Antibacterial activity against Escherichia coli JW5503 overexpressing gyrB in presence of IPTG induction after 16 hrs by broth microdilution method; type: functional; details: JW5503, 16 h
[5] = tested on: Escherichia coli; test: Antibacterial activity against ciprofloxacin-resistant Escherichia coli JW5503 harboring GyrA Ser83Leu mutant after 16 to 18 hrs by broth microdilution method; type: functional
[6] = tested on: Escherichia coli; test: Antibacterial activity against Escherichia coli JW5503 overexpressing gyrB in absence of IPTG induction after 16 hrs by broth microdilution method; type: functional; details: JW5503, 16 h
[7] = tested on: Escherichia coli; test: Antibacterial activity against Escherichia coli JW5503 overexpressing gyrA in absence of IPTG induction after 16 hrs by broth microdilution method; type: functional; details: JW5503, 16 h
[8] = biological target: DNA gyrase (Escherichia coli) (UniProt P0AES6+P0AES4); test: Inhibition of Escherichia coli DNA gyrase ATPase activity up to 100 uM using DNA as substrate after 60 mins; type: protein-complex assay
[9] = tested on: Escherichia coli; test: Antibacterial activity against Escherichia coli transfected with empty vector

O=C(O)c1cn(C2CC2)c2cc(N3CCNCC3)c(F)cc2c1=O [CIPROFLOXACIN]
Activity [1]: Active
MIC [2]: 2.1 ng/mL (≈ 6.34 nM)
MIC [3]: 2.1 ng/mL (≈ 6.34 nM)
MIC [4]: 2.1 ng/mL
MIC [5]: 6.4 ng/mL (≈ 19.3 nM)
MIC [6]: 2.1 ng/mL (≈ 6.34 nM)
MIC [7]: 2.1 ng/mL (≈ 6.34 nM)
inhibition [8]: inactive
MIC [9]: 9 ng/mL (≈ 27.2 nM)
